Laboratory results published in US8273773B2 (priority 2008, dated 2012).

Experiments:
[1] = molecular target: T1, HCV polymerase (NS5B570n-Con1) (Hepatitis C virus genotype 1b, UniProt Q9WMX2); assay: biochemical; design: species or system HCV Con1 strain; details: IC50 HCV NS5B RNA Polymerase Assay, values without asterisk; 20 nM NS5B570n-Con1 enzyme, 20 nM cIRES RNA template;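 also: recombinant His-tagged enzyme from E. coli, radiolabeled nucleotide incorporation into acid-insoluble RNA read by scintillation after filtration, no-enzyme background subtracted, activity relative to positive control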
T1 construct: contains a 21 amino acid deletion at the C-terminus relative to the full-length HCV polymerase; 6-histidine (N); made in house; host or cells: E. coli strain BL21(DE) pLysS (pET17b)

SMILES	IC50 [1] [nM]	melting point [°C]
COc1c(C(=O)c2ccnc(N)c2)cc(-c2ccc[nH]c2=O)cc1C(C)(C)C [I-84, 3-[3-(2-Amino-pyridine-4-carbonyl)-5-tert-butyl-4-methoxy-phenyl]-1H-pyridin-2-one]	32	140 to 145
CC1(C)COc2c(-c3ccc[nH]c3=O)cc(NC(=O)c3ccc(NS(C)(=O)=O)cc3)cc21 [II-4, N-[3,3-Dimethyl-7-(2-oxo-1,2-dihydro-pyridin-3-yl)-2,3-dihydro-benzofuran-5-yl]-4-methanesulfonylamino-benzamide]	33	> 300
Cc1cc(-c2cc(F)c[nH]c2=O)cc(C(C)(C)C)c1 [I-53]	1930	244 to 246
CC(C)(C)c1cc(/C=C/c2ccc(NS(C)(=O)=O)cc2)cc(-c2cc(F)c[nH]c2=O)c1 [I-148]	6	210 to 212
Cc1cc(-c2cc(Cl)c[nH]c2=O)cc(C(C)(C)C)c1 [I-8]	1960	232 to 233
CC(C)(C)c1cc(-c2ccc[nH]c2=O)cc(NC(=O)c2ccc(NS(C)(=O)=O)cc2)c1F [I-73, N-[3-tert-Butyl-2-fluoro-5-(2-oxo-1,2-dihydro-pyridin-3-yl)-phenyl]-4-methanesulfonylamino-benzamide]	54	286 to 288
CC(C)(C)c1cc(/C=C/c2ccc(NS(C)(=O)=O)cc2C#N)cc(-c2ccc[nH]c2=O)c1 [I-147, N-(4-{(E)-2-[3-tert-Butyl-5-(2-oxo-1,2-dihydro-pyridin-3-yl)-phenyl]-vinyl}-3-cyano-phenyl)-methanesulfonamide]	2	> 300
COc1c(C(=O)NC2CC2)cc(-c2ccc[nH]c2=O)cc1C(C)(C)C [I-19]	1620	223 to 224
COc1c(NC(=O)c2ccc(NS(C)(=O)=O)cc2)cc(-c2ccc[nH]c2=O)cc1C1(C)CC1 [I-82]	6	254 to 256
COc1c(/C=C/c2ccc(NS(C)(=O)=O)cc2C#N)cc(-c2cc(F)c[nH]c2=O)cc1C(C)(C)C [I-151, N-(4-{(E)-2-[3-tert-Butyl-5-(5-fluoro-2-oxo-1,2-dihydro-pyridin-3-yl)-2-methoxy-phenyl]-vinyl}-3-cyano-phenyl)-methanesulfonamide]	5	158 to 160
COc1c(C(=O)c2sccc2C)cc(-c2ccc[nH]c2=O)cc1C(C)(C)C [I-57]	61	123.3 to 125.5
CC(C)(C)c1cc(Cc2ccccc2)cc(-c2ccc[nH]c2=O)c1 [I-46, 3-(3-Benzyl-5-tert-butyl-phenyl)-1H-pyridin-2-one]	534	180 to 181
COc1c(CCc2ccc(NS(C)(=O)=O)cc2)cc(-c2cc(F)c[nH]c2=O)cc1C(C)(C)C [I-67]	10	125 to 130
COc1c(C(=O)Nc2ccc(NS(C)(=O)=O)cc2C)cc(-c2ccc[nH]c2=O)cc1C(C)(C)C [I-69, 3-tert-Butyl-N-(4-methanesulfonylamino-2-methyl-phenyl)-2-methoxy-5-(2-oxo-1,2-dihydro-pyridin-3-yl)-benzamide]	13	278 to 280
COc1c(NC(=O)c2ccc(N)cc2)cc(-c2ccc[nH]c2=O)cc1C(C)(C)C [I-72]	34	190 to 193
Cc1ccc(-c2cc(C(C)(C)C)cc(/C=C/c3ccc(NS(C)(=O)=O)cc3)c2O)c(=O)[nH]1 [I-140]	322	258 to 260
CC(C)(C)c1cc(CCc2ccc(NS(C)(=O)=O)cc2)c(N)c(-c2ccc[nH]c2=O)c1 [I-98, N-(4-{2-[2-Amino-5-tert-butyl-3-(2-oxo-1,2-dihydro-pyridin-3-yl)-phenyl]-ethyl}-phenyl)-methanesulfonamide]	7	140 to 142
COc1c(CCc2ccc(NS(C)(=O)=O)cc2C)cc(-c2ccc[nH]c2=O)cc1C(C)(C)C [I-109, N-(4-{2-[3-tert-Butyl-2-methoxy-5-(2-oxo-1,2-dihydro-pyridin-3-yl)-phenyl]-ethyl}-3-methyl-phenyl)-methanesulfonamide]	7	240 to 242
CC(C)(C)c1cc(CCc2ccc(NS(C)(=O)=O)cc2)c(C(N)=O)c(-c2ccc[nH]c2=O)c1 [I-122, 4-tert-Butyl-2-[2-(4-methanesulfonylamino-phenyl)-ethyl]-6-(2-oxo-1,2-dihydro-pyridin-3-yl)-benzamide]	3	170 to 172
CC(C)(C)c1cc(CCc2ccc(NS(C)(=O)=O)cc2)cc(-c2cc(F)c[nH]c2=O)c1 [I-94]	10	191 to 193
COc1c(NC(=O)c2ccc(NS(C)(=O)=O)cc2)cc(-c2cc(F)c[nH]c2=O)cc1C(C)(C)C [I-81]	22	272 to 274
CCOc1ccc(-c2ccc[nH]c2=O)cc1C(C)(C)C [I-5]	4680	201 to 202

SMILES	IC50 [1] [nM]	melting point [°C]
CC(C)(C)c1cc(/C=C/c2ccc(NS(C)(=O)=O)cc2)cc(-c2ccc[nH]c2=O)c1 [I-141, N-(4-{(E)-2-[3-tert-Butyl-5-(2-oxo-1,2-dihydro-pyridin-3-yl)-phenyl]-vinyl}-phenyl)-methanesulfonamide]	26	260 to 262
COc1c(CCc2ccc(NS(C)(=O)=O)nn2)cc(-c2ccc[nH]c2=O)cc1C(C)(C)C [I-127]	4	218 to 220
CCc1cc(-c2ccc[nH]c2=O)cc(C(C)(C)C)c1OC [I-30]	728	213 to 214
CCOc1cc(NS(C)(=O)=O)ccc1C(=O)Nc1cc(-c2ccc[nH]c2=O)cc(C(C)(C)C)c1OC [I-115]	9	290 to 292
COc1c(CCc2ccc(N)cc2)cc(-c2ccc[nH]c2=O)cc1C1(C)CC1 [I-99, 3-[3-[2-(4-amino-phenyl)-ethyl]-4-methoxy-5-(1-methyl-cyclopropyl)-phenyl]-1H-pyridin-2-one]	590	209 to 211
CC(C)(C)c1ccc(O)c(-c2ccc[nH]c2=O)c1 [I-2]	3580	211 to 212
CC(C)(C)c1cc(Oc2ccccc2)cc(-c2ccc[nH]c2=O)c1 [I-45, 3-(3-tert-Butyl-5-phenoxy-phenyl)-1H-pyridin-2-one]	786	90 to 91
CC(C)(C)c1cc(/C=C/c2ccc(NS(C)(=O)=O)cc2)c(O)c(-c2ccc[nH]c2=O)c1 [I-137]	10	180 to 182
COc1c(NC(=O)c2ccc(N)c(F)c2)cc(-c2ccc[nH]c2=O)cc1C(C)(C)C [I-120]	3	283 to 285
COc1ccc(-c2ccc[nH]c2=O)cc1C1(C)CC1 [I-61]	1230	194 to 195
COc1c(C(=O)NC2CCCCC2)cc(-c2ccc[nH]c2=O)cc1C(C)(C)C [I-101]	753	136 to 138
CC(C)(C)c1cc(CCc2ccc(NS(C)(=O)=O)cc2)c(OCCO)c(-c2ccc[nH]c2=O)c1 [I-118, N-(4-{2-[5-tert-Butyl-2-(2-hydroxy-ethoxy)-3-(2-oxo-1,2-dihydro-pyridin-3-yl)-phenyl]-ethyl}-phenyl)-methanesulfonamide]	15	223 to 225
COc1c(CCc2ccc(NS(C)(=O)=O)cc2)cc(-c2ccc[nH]c2=O)cc1C1(C)CC1 [I-108, N-(4-{2-[2-Methoxy-3-(1-methyl-cyclopropyl)-5-(2-oxo-1,2-dihydro-pyridin-3-yl)-phenyl]-ethyl}-phenyl)-methanesulfonamide]	6	192 to 194
CC1(C)COc2c(/C=C/c3ccc(NS(C)(=O)=O)cc3)cc(-c3ccc[nH]c3=O)cc21 [II-1, N-(4-{(E)-2-[3,3-Dimethyl-5-(2-oxo-1,2-dihydro-pyridin-3-yl)-2,3-dihydro-benzofuran-7-yl]-vinyl}-phenyl)-methanesulfonamide]	5	284 to 286
COc1c(/C=C/c2ccccc2)cc(-c2ccc[nH]c2=O)cc1C(C)(C)C [I-144]	11	183 to 185
COc1c(NC(=O)c2ccc(NS(C)(=O)=O)c(F)c2)cc(-c2ccc[nH]c2=O)cc1C(C)(C)C [I-121]	7	270 to 272
CC(C)(C)c1cc(Cl)c(O)c(-c2ccc[nH]c2=O)c1 [I-16]	532	211.4 to 213.5
COc1c(C(=O)c2cccc(NS(C)(=O)=O)c2)cc(-c2ccc[nH]c2=O)cc1C(C)(C)C [I-100, N-{3-[3-tert-Butyl-2-methoxy-5-(2-oxo-1,2-dihydro-pyridin-3-yl)-benzoyl]-phenyl}-methanesulfonamide]	16	261 to 263
COc1c(Cc2ccccc2)cc(-c2ccc[nH]c2=O)cc1C(C)(C)C [I-48]	528	202.6 to 204.3
COc1c(/C=C(\C#N)c2ccc(NS(C)(=O)=O)cc2)cc(-c2ccc[nH]c2=O)cc1C(C)(C)C [I-138, N-(4-{(Z)-2-[3-tert-Butyl-2-methoxy-5-(2-oxo-1,2-dihydro-pyridin-3-yl)-phenyl]-1-cyano-vinyl}-phenyl)-methanesulfonamide]	10	288 to 290
COc1c(C(=O)c2cccc(CN)c2)cc(-c2ccc[nH]c2=O)cc1C(C)(C)C [I-106]	24	110 to 115
COc1c(/C=C/c2ccc(NS(C)(=O)=O)cc2C#N)cc(-c2ccc[nH]c2=O)cc1C(C)(C)C [I-150, N-(4-{(E)-2-[3-tert-Butyl-2-methoxy-5-(2-oxo-1,2-dihydro-pyridin-3-yl)-phenyl]-vinyl}-3-cyano-phenyl)-methanesulfonamide]	3	266 to 268
